Tests used:
recombinant DGKα = target: T1, recombinant DGKα (Rattus norvegicus, UniProt P51556); experiment: Gel-based ATP acyl phosphate chemical proteomic assay; assay type: binding; settings: compounds 100 μM (ATP 1 mM; RF001 at indicated concentrations), 30 min; probe 10 μM
T1 construct: expressed in transfected cells; host or cells: HEK293T (SILAC HEK293T for LC-MS)
Protocol: Cell pellets were resuspended in kinase buffer (Dulbecco's PBS (DPBS, Hyclone), 20 mM MgCl2, EDTA-free protease inhibitors (Pierce)) and then lysed by sonication (3×1 sec pulse, 20% amplitude). The cell lysates were then subjected to centrifugation (100,000×g, 45 min at 4° C.) to isolate the cytosolic fraction in the supernatant and the membrane fraction as a pellet. The membrane pellet was resuspended in kinase buffer by sonication. […] The only exception was experiments involving DGKE; recombinant DGKE protein was most prominently expressed in the membrane fraction and so this fraction was utilized to study DGKE enzyme (see FIG. 8). Protein concentrations were measured using the Bio-Rad DC protein assay. Samples were stored at −80° C. until use.
Proteome concentration was adjusted to 2 mg/mL in kinase buffer. Proteomes were first pre-treated with compound (0.6 μL, 50× stock in DMSO) mixed with gentle flicking, and incubated for 30 min at 25° C. in a microfuge tube (30 μL reaction volume). […] Reactions were then quenched with 10 AL of 4×SDS-PAGE loading buffer. Protein samples (15 μL) were loaded onto 4-20% TGX Stain-Free Protein Midi Gel and resolved by SDS-PAGE at 150V for 55 min. Proteins were then transferred to a nitrocellulose blot by Bio-Rad Trans-Blot Turbo Transfer System (25V. 10 min) to enhance sensitivity. The nitrocellulose blot was then incubated in blocking solution (30 mL, 3% BSA in TBS-T) for 1 h at 25° C. with gentle shaking. The blot was then transferred immediately to antibody solution (30 mL, 5% BSA in ddH2O with 0.1% Tween20 and 1:3000 Streptavidin DyLight 550) and incubated for 2 h at 25° C. with gentle shaking. The blot was then rinsed 5 times for 5 min in TBS-T. and then transferred into ddH2O. The blot was then imaged by in-blot fluorescence scanning on a ChemiDoc MP Imaging System. Fluorescence intensity signals were normalized to total lane protein using the Bio-rad Stain Free imaging (Posch et al., 2013).
The percentage of enzyme activity remaining was determined by comparing integrated band intensities or luminescence of inhibitor—with DMSO-treated samples for gel-based chemical proteomic or ADP-glo assays, respectively. For both chemical proteomic and ADP-glo methods, nonlinear regression analysis was used to determine the IC50 values from a dose-response curve generated using GraphPad Prism. Data are shown as mean±s.e.m. Determination of significance was performed by one-way ANOVA. All statistical analyses were performed using GraphPad Prism.

[1] = target: Alpha (DGK alpha; only in reference sheet cells) (Rattus norvegicus, UniProt P51556); experiment: DGK isoform % Activity screen; assay type: biochemical; settings: for activity at 100 µM: read-out: 100 uM % Activity (section without isoform head; Alpha); for activity at 1000 µM: read-out: 1 mM % Activity (section without isoform head; Alpha)
Zeta (DGK zeta) = Zeta (DGK zeta) (Homo sapiens, UniProt Q13574); experiment: DGK isoform % Activity screen; assay type: biochemical; settings: for activity at 1000 µM: read-out: 1 mM % Activity, Zeta
Gamma (DGK gamma) = Gamma (DGK gamma) (Homo sapiens, UniProt P49619); experiment: DGK isoform % Activity screen; assay type: biochemical; settings: for activity at 1000 µM: read-out: 1 mM % Activity, Gamma
Gamma (DGK gamma), sequence (P49619 whole entry, canonical isoform): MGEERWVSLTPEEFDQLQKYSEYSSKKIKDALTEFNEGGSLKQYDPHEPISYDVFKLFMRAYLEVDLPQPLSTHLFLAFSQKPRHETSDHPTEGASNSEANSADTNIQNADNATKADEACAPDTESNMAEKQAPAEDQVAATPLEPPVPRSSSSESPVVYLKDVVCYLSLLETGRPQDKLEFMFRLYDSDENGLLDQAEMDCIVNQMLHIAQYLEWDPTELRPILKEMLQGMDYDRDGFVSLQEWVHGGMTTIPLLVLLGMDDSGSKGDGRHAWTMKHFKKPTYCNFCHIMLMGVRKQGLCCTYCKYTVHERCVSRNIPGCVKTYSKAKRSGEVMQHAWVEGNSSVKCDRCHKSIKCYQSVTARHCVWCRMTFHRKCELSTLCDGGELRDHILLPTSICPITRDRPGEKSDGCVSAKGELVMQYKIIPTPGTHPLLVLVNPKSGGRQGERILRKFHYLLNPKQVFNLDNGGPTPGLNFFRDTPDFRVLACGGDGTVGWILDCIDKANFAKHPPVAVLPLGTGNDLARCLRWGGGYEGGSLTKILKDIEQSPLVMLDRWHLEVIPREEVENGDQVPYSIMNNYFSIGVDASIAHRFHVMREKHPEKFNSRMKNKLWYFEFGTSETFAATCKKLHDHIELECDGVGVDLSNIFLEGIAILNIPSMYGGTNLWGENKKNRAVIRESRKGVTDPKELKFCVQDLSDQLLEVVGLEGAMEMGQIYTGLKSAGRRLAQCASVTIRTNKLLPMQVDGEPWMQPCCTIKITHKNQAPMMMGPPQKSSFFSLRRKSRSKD

Alpha (DGK alpha; only in reference sheet cells), sequence (P51556 whole entry, canonical isoform): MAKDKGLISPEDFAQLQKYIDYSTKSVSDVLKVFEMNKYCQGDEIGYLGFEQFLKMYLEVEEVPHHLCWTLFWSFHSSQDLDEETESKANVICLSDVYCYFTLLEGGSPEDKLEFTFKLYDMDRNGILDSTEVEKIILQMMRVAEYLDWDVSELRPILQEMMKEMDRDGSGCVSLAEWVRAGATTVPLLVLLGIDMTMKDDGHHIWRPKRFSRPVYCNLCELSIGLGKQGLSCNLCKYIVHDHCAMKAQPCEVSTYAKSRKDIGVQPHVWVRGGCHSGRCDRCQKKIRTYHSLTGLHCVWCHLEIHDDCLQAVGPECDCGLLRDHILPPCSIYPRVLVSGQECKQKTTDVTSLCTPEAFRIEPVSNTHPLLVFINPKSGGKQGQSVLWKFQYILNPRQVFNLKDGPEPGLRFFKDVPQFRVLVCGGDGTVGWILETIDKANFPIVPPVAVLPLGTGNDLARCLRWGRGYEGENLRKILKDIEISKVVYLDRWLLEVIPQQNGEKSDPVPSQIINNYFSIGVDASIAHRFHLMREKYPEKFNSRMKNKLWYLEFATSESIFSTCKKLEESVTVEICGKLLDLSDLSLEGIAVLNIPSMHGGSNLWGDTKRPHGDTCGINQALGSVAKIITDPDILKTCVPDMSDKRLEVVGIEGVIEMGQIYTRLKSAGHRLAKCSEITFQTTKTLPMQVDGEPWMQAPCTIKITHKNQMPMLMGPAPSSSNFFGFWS
Zeta (DGK zeta), sequence (Q13574 whole entry, canonical isoform): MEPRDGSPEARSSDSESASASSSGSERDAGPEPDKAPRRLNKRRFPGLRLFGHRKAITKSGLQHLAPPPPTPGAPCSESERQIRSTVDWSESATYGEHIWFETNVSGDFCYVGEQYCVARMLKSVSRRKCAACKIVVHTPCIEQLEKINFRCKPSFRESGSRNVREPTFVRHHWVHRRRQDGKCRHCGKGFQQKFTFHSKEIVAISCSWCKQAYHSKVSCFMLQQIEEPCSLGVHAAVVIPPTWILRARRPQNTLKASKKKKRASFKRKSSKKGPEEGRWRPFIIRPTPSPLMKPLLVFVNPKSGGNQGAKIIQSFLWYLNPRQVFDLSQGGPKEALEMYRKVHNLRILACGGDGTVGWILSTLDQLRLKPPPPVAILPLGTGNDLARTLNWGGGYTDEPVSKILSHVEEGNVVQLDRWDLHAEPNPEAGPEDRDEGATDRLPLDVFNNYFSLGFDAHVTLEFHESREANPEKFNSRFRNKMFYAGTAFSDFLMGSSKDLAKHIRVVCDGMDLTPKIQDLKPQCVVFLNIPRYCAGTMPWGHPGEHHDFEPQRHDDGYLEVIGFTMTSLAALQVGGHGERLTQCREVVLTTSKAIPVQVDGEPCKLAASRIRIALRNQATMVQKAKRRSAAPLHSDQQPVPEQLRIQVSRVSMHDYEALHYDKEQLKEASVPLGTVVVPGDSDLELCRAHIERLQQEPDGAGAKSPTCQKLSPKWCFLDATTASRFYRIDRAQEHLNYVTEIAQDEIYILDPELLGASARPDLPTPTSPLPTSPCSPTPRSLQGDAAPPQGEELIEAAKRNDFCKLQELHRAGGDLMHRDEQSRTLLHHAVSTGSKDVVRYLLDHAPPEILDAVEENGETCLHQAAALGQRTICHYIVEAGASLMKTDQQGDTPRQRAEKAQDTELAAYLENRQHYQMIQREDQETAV
T1 sequence (P51556 whole entry): as the sequence (P51556 whole entry, canonical isoform) above

Cc1nc2sccn2c(=O)c1CCN1CCC(=C(c2ccccc2)c2ccc(F)cc2)CC1 [R59022]
blockade of DGKα ATP probe labeling (recombinant DGKα): blocked DGKα probe labeling

O=c1c2ccccc2[nH]c(=S)n1CCN1CCC(=C(c2ccc(F)cc2)c2ccc(F)cc2)CC1 [R59949]
blockade of DGKα ATP probe labeling (recombinant DGKα): blocked DGKα probe labeling

Fc1ccc(C(c2ccc(F)cc2)N2CCNCC2)cc1 [TH001]
activity at 100 µM [1]: 72% | activity at 1000 µM [1]: 0% | activity at 100 µM (Zeta (DGK zeta)): 102% | activity at 1000 µM (Zeta (DGK zeta)): 0% | activity at 100 µM (Gamma (DGK gamma)): 99% | activity at 1000 µM (Gamma (DGK gamma)): 0%

c1ccc2c(c1)-c1ccccc1C2N1CCNCC1 [TH002]
activity at 100 µM [1]: 84% | activity at 1000 µM [1]: 0% | activity at 100 µM (Zeta (DGK zeta)): 98% | activity at 1000 µM (Zeta (DGK zeta)): 0%

CN1C2CCC1CC(OC(c1ccccc1)c1ccccc1)C2 (stereo not drawn) [TH004]
activity at 100 µM (Zeta (DGK zeta)): 82% | activity at 1000 µM (Zeta (DGK zeta)): 21%

CN(C)CCOc1ccc(/C(=C(/CCCl)c2ccccc2)c2ccccc2)cc1 [TH005]
activity at 100 µM [1]: 103% | activity at 1000 µM [1]: 14% | activity at 100 µM (Zeta (DGK zeta)): 86% | activity at 1000 µM (Zeta (DGK zeta)): 0%

Fc1ccc(C(c2ccc(F)cc2)C2CCNCC2)cc1 [TH010]
activity at 1000 µM [1]: 64% | activity at 100 µM (Zeta (DGK zeta)): 96% | activity at 1000 µM (Zeta (DGK zeta)): 30%

c1ccc(C(=C2CCNCC2)c2ccccc2)cc1 [TH011]
activity at 100 µM [1]: 78% | activity at 1000 µM [1]: 0% | activity at 100 µM (Zeta (DGK zeta)): 96% | activity at 1000 µM (Zeta (DGK zeta)): 0%

c1ccc(C(c2ccccc2)C2CCNCC2)cc1 [TH012]
activity at 1000 µM [1]: 41% | activity at 100 µM (Zeta (DGK zeta)): 99% | activity at 1000 µM (Zeta (DGK zeta)): 15%

Fc1ccc(C(=C2CCCN(Cc3ccccc3)C2)c2ccc(F)cc2)cc1 [TH014]
activity at 1000 µM [1]: 160% | activity at 100 µM (Zeta (DGK zeta)): 140% | activity at 1000 µM (Zeta (DGK zeta)): 327%

CC(=O)N1CCN(C(c2ccc(F)cc2)c2ccc(F)cc2)CC1 [TH016]
activity at 1000 µM [1]: 139% | activity at 100 µM (Zeta (DGK zeta)): 98% | activity at 1000 µM (Zeta (DGK zeta)): 108%

Cc1ccc(C(=C2CCNCC2)c2ccc(C)cc2)cc1 [TH019]
activity at 100 µM [1]: 92% | activity at 1000 µM [1]: 1% | activity at 100 µM (Zeta (DGK zeta)): 103% | activity at 1000 µM (Zeta (DGK zeta)): 0%

Fc1ccc(C(c2ccc(F)cc2)N2CCN(Cc3ccc4ccccc4n3)CC2)cc1 [TH022]
activity at 100 µM [1]: 103% | activity at 1000 µM [1]: 60% | activity at 100 µM (Zeta (DGK zeta)): 135% | activity at 1000 µM (Zeta (DGK zeta)): 193%

Fc1ccc(C(c2ccc(F)cc2)N2CCN(C3CCNCC3)CC2)cc1 [TH024]
activity at 100 µM [1]: 84% | activity at 1000 µM [1]: 3% | activity at 100 µM (Zeta (DGK zeta)): 72% | activity at 1000 µM (Zeta (DGK zeta)): 0%

COc1ccc(C(=C2CCNCC2)c2ccc(OC)cc2)cc1 [TH025]
activity at 100 µM [1]: 79% | activity at 1000 µM [1]: 4.4% | activity at 100 µM (Zeta (DGK zeta)): 103% | activity at 1000 µM (Zeta (DGK zeta)): 0%

OC(c1ccc(F)cc1)(c1ccc(F)cc1)C1CCNCC1 [TH028]
activity at 100 µM [1]: 96% | activity at 1000 µM [1]: 0% | activity at 100 µM (Zeta (DGK zeta)): 125% | activity at 1000 µM (Zeta (DGK zeta)): 0%

Fc1ccc(C(=C2CCN(Cc3ccc4ccccc4n3)CC2)c2ccc(F)cc2)cc1 [TH029]
activity at 100 µM [1]: 125% | activity at 1000 µM [1]: 73% | activity at 100 µM (Zeta (DGK zeta)): 169% | activity at 1000 µM (Zeta (DGK zeta)): 252%

OCCN1CCN(C(c2ccc(F)cc2)c2ccc(F)cc2)CC1 [TH030]
activity at 100 µM [1]: 103% | activity at 1000 µM [1]: 36% | activity at 100 µM (Zeta (DGK zeta)): 91% | activity at 1000 µM (Zeta (DGK zeta)): 5%

OCCCN1CCN(C(c2ccc(F)cc2)c2ccc(F)cc2)CC1 [TH031]
activity at 100 µM [1]: 107% | activity at 1000 µM [1]: 26% | activity at 100 µM (Zeta (DGK zeta)): 105% | activity at 1000 µM (Zeta (DGK zeta)): 0%

Fc1ccc(C(c2ccc(F)cc2)N2CCN(CCCN3CCCC3)CC2)cc1 [TH032]
activity at 100 µM [1]: 94% | activity at 1000 µM [1]: 8% | activity at 100 µM (Zeta (DGK zeta)): 80% | activity at 1000 µM (Zeta (DGK zeta)): 0%

Fc1ccc(C(c2ccc(F)cc2)N2CCN(CCCN3CCN(C(c4ccc(F)cc4)c4ccc(F)cc4)CC3)CC2)cc1 [TH033]
activity at 100 µM [1]: 72% | activity at 1000 µM [1]: 4% | activity at 100 µM (Zeta (DGK zeta)): 82%

CS(=O)(=O)N1CCC(=C(c2ccc(F)cc2)c2ccc(F)cc2)CC1 [TH035]
activity at 100 µM [1]: 88% | activity at 1000 µM [1]: 40% | activity at 100 µM (Zeta (DGK zeta)): 112% | activity at 1000 µM (Zeta (DGK zeta)): 100%

CS(=O)(=O)N1CCN(C(c2ccc(F)cc2)c2ccc(F)cc2)CC1 [TH036]
activity at 100 µM [1]: 93% | activity at 1000 µM [1]: 74% | activity at 100 µM (Zeta (DGK zeta)): 108% | activity at 1000 µM (Zeta (DGK zeta)): 105%

OC(c1ccc(C(F)(F)F)cc1)(c1ccc(C(F)(F)F)cc1)C1CCNCC1 [TH039]
activity at 100 µM [1]: 81% | activity at 1000 µM [1]: 6% | activity at 100 µM (Zeta (DGK zeta)): 94% | activity at 1000 µM (Zeta (DGK zeta)): 1% | activity at 100 µM (Gamma (DGK gamma)): 91% | activity at 1000 µM (Gamma (DGK gamma)): 1%

Clc1ccc(C(=C2CCNCC2)c2ccc(Cl)cc2)cc1 [TH040]
activity at 100 µM [1]: 78% | activity at 1000 µM [1]: 4% | activity at 100 µM (Zeta (DGK zeta)): 85% | activity at 1000 µM (Zeta (DGK zeta)): 0% | activity at 100 µM (Gamma (DGK gamma)): 101% | activity at 1000 µM (Gamma (DGK gamma)): 5%
